Entries after “also recorded” stand apart in the source; their conditions may differ.
Columns and labels:
Format in all cases: cell-based, human
[1] = tested on: IFNGR1 expression and IFN-γ-STAT1 signaling; assay: qRT-PCR and western blot of IFNGR1 expression and IFN-γ signaling in DU145 cells
Method: All cells were maintained at 37° C. with 5% CO2. Cells were grown until they were 80% confluent before they are treated the respective drugs. For drug treatment, DZNep and GSK126 were purchased from Pharmaron Inc. (Beijing, China), GSK343 was kindly provided by Chemical Probes of University of Toronto, 5′Aza, TSA and human recombinant IFN-γ was purchased from Sigma. For rescue experiment using IFNGR1 blocking antibody, the neutralizing antibody that specifically targets IFNGR1 (anti-CD119, GIR-208, BD Pharmingen) was added to the medium 4 hour prior to the addition of DZNep or/and IFN-γ. Total RNA was isolated by using Trizol (Invitrogen) and purified with the RNeasy Mini Kit (Qiagen). The microarray hybridization was performed using the Illumina Gene Expression Sentrix BeadChip HumanRef-8_V3, and data analysis was performed by GeneSpring software from Agilent Technologies as described previously. The analyzed gene sets by GeneSpring were next subjected to Ingenuity Pathway Analysis (IPA) for gene ontology (GO) analysis. Reverse transcription and quantitative PCR assays were performed using High Capacity cDNA Archive kit and KAPA SyBr Fast qPCR kit (KAPA biosystems). For quantification of mRNA levels, 18S level was used as an internal control. All reactions were analyzed in an Applied Biosystems PRISM 7500 Fast Real-Time PCR system in 96-well plate format. Western Blotting was performed as described previously. Briefly, Cells were scraped, collected, and lysed in RIPA buffer. To release histones from chromatin, cell lysates were further sonicated for 15 sec using a XL2000 Microson Ultrasonic Processor (Misonix). Equal amounts of protein (30 μg) were separated on SDS-polyacrylamide gels and transferred to PVDF membranes. The blots were probed with antibodies against EED (07-368), SUZ12 (07-379), trimethylated H3-K27 (07-449), Acetyl-Histone H3 (06-599), which were purchased from Upstate Biotechnology. IFNGR1 (GIR-94) and anti-IFI16 (1G7) were purchased from Santa Cruz. EZH2 phospho S21 (00388) was purchased from Bethyl Laboratories. EZH2 (AC22), P110α PI3K, p-AKT (T308), p-AKT (S473), pSTAT1Y701, total STAT1, Histone H3 (3H1), Beclin-1 and cleaved PARP were purchased from Cell Signaling. Myc and Actin were purchased from Roche Applied Science and Sigma-Aldrich, respectively.

[2] = tested on: IFNGR1 expression; assay: qRT-PCR of IFNGR1 in MDA-MB-231 cells; details: ER− basal like MDA-MB-231 cells
Method: (§1) Total RNA was isolated by using Trizol (Invitrogen) and purified with the RNeasy Mini Kit (Qiagen). The microarray hybridization was performed using the Illumina Gene Expression Sentrix BeadChip HumanRef-8_V3, and data analysis was performed by GeneSpring software from Agilent Technologies as described previously. The analyzed gene sets by GeneSpring were next subjected to Ingenuity Pathway Analysis (IPA) for gene ontology (GO) analysis. Reverse transcription and quantitative PCR assays were performed using High Capacity cDNA Archive kit and KAPA SyBr Fast qPCR kit (KAPA biosystems). For quantification of mRNA levels, 18S level was used as an internal control. All reactions were analyzed in an Applied Biosystems PRISM 7500 Fast Real-Time PCR system in 96-well plate format.
Western Blotting was performed as described previously. Briefly, Cells were scraped, collected, and lysed in RIPA buffer. To release histones from chromatin, cell lysates were further sonicated for 15 sec using a XL2000 Microson Ultrasonic Processor (Misonix). Equal amounts of protein (30 μg) were separated on SDS-polyacrylamide gels and transferred to PVDF membranes. The blots were probed with antibodies against EED (07-368), SUZ12 (07-379), trimethylated H3-K27 (07-449), Acetyl-Histone H3 (06-599), which were purchased from Upstate Biotechnology. IFNGR1 (GIR-94) and anti-IFI16 (1G7) were purchased from Santa Cruz. […]

[3] = tested on: DU145 cells; assay: FACS sub-G1 DNA analysis (apoptosis) in DU145 cells; details: for apoptosis (sub-G1) after knockdown: siRNA knockdown in combination with IFN-γ
Method: (§2) For the assessment of cell death, cells were harvested in 70% ethanol. Fixed cells were stained with Propidium Iodide (P.I) (50 μg/mL). The stained cells were analyzed for DNA content by FACS in a FACSCalibur (Becton Dickinson Instrument). % of cell death was defined as the sub-G1 population quantified using the CellQuest software (Becton Dickinson). The percentage of dead cells or sub-G1 cells was calculated by comparing the results of each experiment to the results from DMSO-treated cells. Each assay was repeated a minimum of three times, with results reported as means+s.e.m.

[4] = tested on: IFNGR1 expression and STAT1 activation; assay: qRT-PCR and western blot of IFNGR1 and IFN signaling in MCF7 cells; details: for IFNGR1 expression: ER+ luminal MCF7 cells
Method: as §1
Western Blotting was performed as described previously. Briefly, Cells were scraped, collected, and lysed in RIPA buffer. To release histones from chromatin, cell lysates were further sonicated for 15 sec using a XL2000 Microson Ultrasonic Processor (Misonix). Equal amounts of protein (30 μg) were separated on SDS-polyacrylamide gels and transferred to PVDF membranes. The blots were probed with antibodies against EED (07-368), SUZ12 (07-379), trimethylated H3-K27 (07-449), Acetyl-Histone H3 (06-599), which were purchased from Upstate Biotechnology. IFNGR1 (GIR-94) and anti-IFI16 (1G7) were purchased from Santa Cruz. EZH2 phospho S21 (00388) was purchased from Bethyl Laboratories. EZH2 (AC22), P110α PI3K, p-AKT (T308), p-AKT (S473), pSTAT1Y701, total STAT1, Histone H3 (3H1), Beclin-1 and cleaved PARP were purchased from Cell Signaling. Myc and Actin were purchased from Roche Applied Science and Sigma-Aldrich, respectively.

[5] = tested on: RWPE1-MYC cells; assay: FACS cell death analysis in RWPE1-MYC cells; details: DZNep (2.5 μM) for 3 days with increasing doses of IFN-γ
Method: as §2

[6] = tested on: DU145-derived prostatospheres; assay: Prostatosphere formation assay, DU145; details: EZH2 knockdown in combination with IFN-γ, 7 days
Method: Prostatospheres were generated according to protocols known to the skilled person in the art. In order to obtain prostatospheres from either DU145 or LNCaP, exponentially growing cultures were dissociated to single cells by standard trypsinization, washed three times with PBS and plated at a density of 1×10^4 cells/well in 6-well ultra-low attachment plates (Corning) containing 3 ml of SCM medium (DMEM:F12 plus 10 ng/mL bFGF, 20 ng/mL EGF, […], and 0.4% BSA) supplemented with 1% KO serum replacement (Invitrogen/Gibco). The cells were treated with DZNep or IFN-γ as indicated the next day and cultured for 7 days. 7 days old prostatospheres formed were stained with 4 μg/ml p-Iodonitrotetrazolium Violet (INT) overnight and were counted and analyzed using a GelCount™ automatic plate scanner (Oxford Optronics) and GelCount Version 0.025.1 software (Oxford Optronics). Plates were scanned at 1200 dpi and the colony detection algorithm was optimized for each cell type and culture time.

[7] = in response to IFN-γ stimulation

Row | Molecule | expression of IFN genes ([1]; DZNep (2.5 μM) combined with IFN-γ) | STAT1 phosphorylation ([1]; DZNep (2.5 μM) combined with IFN-γ, 3 days) | IFNGR1 expression ([1]; DZNep (2.5 μM), 3 days, hydrochloride) | IFNAR1 expression ([1]; DZNep treatment) | IFNGR1 expression [2] | apoptosis (sub-G1) ([3]; DZNep (2.5 μM) combined with increasing doses of IFN-γ, 3 days) | IFNGR1 expression ([4]; hydrochloride) | STAT1 activation and PARP cleavage ([4]; MCF-7 cells, DZNep co-treated with IFN-γ) | induction of apoptosis / cell death [5] | IFNGR1 protein expression after knockdown [1] | STAT1 phosphorylation and IFI16 expression after knockdown [1, 7] | activation of IFN genes after knockdown [1, 7] | apoptosis (sub-G1) after knockdown [3] | apoptosis (sub-G1) after knockdown ([3]; listed as siEZH2) | tumorsphere formation after knockdown [6] | IFNGR1 expression [4]
1 | Cl.Nc1nccc2c1ncn2[C@@H]1C=C(CO)[C@@H](O)[C@H]1O [DZNep, (−)-1-[(1R,4R,5S)-3-(Hydroxymethyl)-4,5-dihydroxy-2-cyclopenten-1-yl]4-aminoimidazo[4,5-c]pyridine hydrochloride] | strong inductions of IFN genes | strong inductions | induced the expression of IFNGR1; also recorded: induced a marked expression of IFNGR1 | did not change IFNAR1 expression | not seen | synergistic induction of cell death | induction of IFNGR1 at both mRNA and protein levels; also recorded: restored the IFNGR1 expression | increased STAT1 activation and PARP cleavage | synergistic effect |  |  |  |  |  |  | 
2 | EZH2 knockdown: EZH2 siRNA: 5′-GACUCUGAAUGCAGUUGCU-3′ (SEQ ID NO: 1) (other strand not given here) |  |  |  |  | not seen |  |  |  |  | restored the IFNGR1 protein expression | enhanced the STAT1 phosphorylation and the expression of IF116 | robust activation of IFN genes | apoptosis induction | specifically enhances IFN-γ mediated cell death | efficiently inhibited the tumorsphere formation | induction of IFNGR1 at both mRNA and protein levels

From US9889180B2, “Method of treating cancer” (Agency for Science, Technology and Research, priority 2012, dated 2018)
